From PubChem BioAssay AID330 (DTP/NCI, 2004)
Where “and” joins values, the source holds several entries; their conditions need not be identical. Identical values can stand only once. Inconclusive results and toxic doses are left out. The calls were made as follows: active = survival T/C of 150% or more; inactive = T/C below 125% in these data.

Tested on: P388 leukemia ip, CD2F1 mice, survival T/C
Test: NCI In Vivo Anticancer Drug Screen. Data for tumor model P388 Leukemia (intraperitoneal) in CD2F1 (CDF1) mice
Conditions: endpoint: median survival time, higher = longer survival
How it was run: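 Mice carrying the transplanted tumor received test compound or vehicle. Survival was recorded in each group, and the value is the treated-group measurement divided by that of the vehicle-treated control group.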

[1] = dose: 6.25 mg/kg/injection, schedule: Q01DX009 (ip), vehicle: saline
[2] = dose: 50.0 mg/kg/injection, schedule: Q01DX009 (ip), vehicle: saline
[3] = dose: 12.5 mg/kg/injection, schedule: Q01DX005 (ip), vehicle: Klucel (hydroxypropylcellulose) (HPC)
[4] = dose: 25.0 mg/kg/injection, schedule: Q01DX005 (ip), vehicle: Klucel (hydroxypropylcellulose) (HPC)
[5] = dose: 50.0 mg/kg/injection, schedule: Q01DX005 (ip), vehicle: Klucel (hydroxypropylcellulose) (HPC)
[6] = dose: 25.0 mg/kg/injection, schedule: Q01DX009 (ip), vehicle: saline with Tween-80
[7] = dose: 50.0 mg/kg/injection, schedule: Q01DX009 (ip), vehicle: saline with Tween-80
[8] = dose: 100.0 mg/kg/injection, schedule: Q01DX009 (ip), vehicle: saline with Tween-80
[9] = dose: 200.0 mg/kg/injection, schedule: Q01DX009 (ip), vehicle: saline with Tween-80
[10] = dose: 25.0 mg/kg/injection, schedule: Q01DX009 (ip), vehicle: Klucel (hydroxypropylcellulose) (HPC)
[11] = dose: 50.0 mg/kg/injection, schedule: Q01DX009 (ip), vehicle: Klucel (hydroxypropylcellulose) (HPC)
[12] = dose: 60.0 mg/kg/injection, schedule: Q01DX005 (ip), vehicle: saline with Tween-80
[13] = dose: 120.0 mg/kg/injection, schedule: Q01DX005 (ip), vehicle: saline with Tween-80
[14] = dose: 240.0 mg/kg/injection, schedule: Q01DX005 (ip), vehicle: saline with Tween-80

Measured: T/C

Nc1nc(SCc2ccccc2)c2ncn(CCCl)c2n1
inactive: dose: 0.78 mg/kg/injection, schedule: Q01DX009 (ip), vehicle: saline 97 % of control | dose: 1.56 mg/kg/injection, schedule: Q01DX009 (ip), vehicle: saline 101 % of control | dose: 3.12 mg/kg/injection, schedule: Q01DX009 (ip), vehicle: saline 105 % of control | [1] 102 % of control and 95 % of control | dose: 6.25 mg/kg/injection, schedule: Q01DX009 (ip), vehicle: suspension in saline 103 % of control | dose: 25.0 mg/kg/injection, schedule: Q01DX009 (ip), vehicle: saline 100 % of control | [2] 111 % of control | dose: 50.0 mg/kg/injection, schedule: Q01DX009 (ip), vehicle: suspension in saline 94 % of control

COc1cc(OC)c2c(O)c3c(=O)cc(C)oc3c(-c3c4cc(OC)cc(OC)c4c(O)c4c(=O)cc(C)oc34)c2c1
inactive: [3] 114 % of control | [4] 100 % of control | [5] 96 % of control | dose: 100.0 mg/kg/injection, schedule: Q01DX005 (ip), vehicle: Klucel (hydroxypropylcellulose) (HPC) 100 % of control | dose: 200.0 mg/kg/injection, schedule: Q01DX005 (ip), vehicle: Klucel (hydroxypropylcellulose) (HPC) 90 % of control | dose: 400.0 mg/kg/injection, schedule: Q01DX005 (ip), vehicle: Klucel (hydroxypropylcellulose) (HPC) 97 % of control

COC(=O)C1C(OS(=O)(=O)O)CCC2CN3CCc4c([nH]c5ccccc45)C3CC21 (configuration not stated)
inactive: dose: 60.0 mg/kg/injection, schedule: Q01DX005 (ip), vehicle: Klucel (hydroxypropylcellulose) (HPC) 102 % of control | dose: 120.0 mg/kg/injection, schedule: Q01DX005 (ip), vehicle: Klucel (hydroxypropylcellulose) (HPC) 105 % of control | dose: 240.0 mg/kg/injection, schedule: Q01DX005 (ip), vehicle: Klucel (hydroxypropylcellulose) (HPC) 103 % of control

C[CH](C)[Ge]([CH3])([CH](C)C)[CH](C)C
inactive: [2] 100 % of control | dose: 100.0 mg/kg/injection, schedule: Q01DX009 (ip), vehicle: saline 93 % of control | dose: 200.0 mg/kg/injection, schedule: Q01DX009 (ip), vehicle: saline 110 % of control

Cc1ccc(C(=O)/C=C/c2ccccc2)cc1
inactive: dose: 12.5 mg/kg/injection, schedule: Q01DX009 (ip), vehicle: water 94 % of control | [6] 92 % of control | dose: 25.0 mg/kg/injection, schedule: Q01DX009 (ip), vehicle: water 95 % of control | [7] 108 % of control | dose: 50.0 mg/kg/injection, schedule: Q01DX009 (ip), vehicle: water 99 % of control | [8] 102 % of control | dose: 100.0 mg/kg/injection, schedule: Q01DX009 (ip), vehicle: water 104 % of control | [9] 109 % of control | dose: 200.0 mg/kg/injection, schedule: Q01DX009 (ip), vehicle: water 96 % of control

c1cn(C23CC4CC(CC(C4)C2)C3)cn1
inactive: dose: 25.0 mg/kg/injection, schedule: Q01DX001 (ip), vehicle: Klucel (hydroxypropylcellulose) (HPC) 97 % of control

C=C1C(=O)OC2/C=C(\C)CC(OC(C)=O)/C=C(/CO)CC(OC(=O)/C(C)=C/C)C12 (configuration not stated)
inactive: dose: 3.75 mg/kg/injection, schedule: Q01DX009 (ip), vehicle: saline + alcohol 90 % of control | dose: 7.5 mg/kg/injection, schedule: Q01DX009 (ip), vehicle: saline + alcohol 98 % of control | dose: 15.0 mg/kg/injection, schedule: Q01DX009 (ip), vehicle: saline + alcohol 93 % of control | dose: 30.0 mg/kg/injection, schedule: Q01DX009 (ip), vehicle: saline + alcohol 86 % of control

C=C(C)C1CCC2=CC(CC3(C)OC3C3=CC(C(=O)OC)=C(C1)O3)OC2=O (configuration not stated)
inactive: dose: 12.5 mg/kg/injection, schedule: Q01DX009 (ip), vehicle: Klucel (hydroxypropylcellulose) (HPC) 99 % of control | [10] 104 % of control | [11] 100 % of control

Nc1c(Cl)c(Cl)nc(C(=O)O)c1Cl
inactive: [10] 101 % of control | [6] 102 % of control | [11] 86 % of control | [7] 100 % of control | dose: 100.0 mg/kg/injection, schedule: Q01DX009 (ip), vehicle: Klucel (hydroxypropylcellulose) (HPC) 93 % of control | [8] 100 % of control | dose: 200.0 mg/kg/injection, schedule: Q01DX009 (ip), vehicle: Klucel (hydroxypropylcellulose) (HPC) 93 % of control | [9] 111 % of control | dose: 400.0 mg/kg/injection, schedule: Q01DX009 (ip), vehicle: saline with Tween-80 115 % of control

Cc1nc(C(Cl)(Cl)Cl)[nH]c(=O)c1SCCO
inactive: dose: 50.0 mg/kg/injection, schedule: Q01DX005 (ip), vehicle: distilled water + alcohol 101 % of control and 108 % of control | dose: 100.0 mg/kg/injection, schedule: Q01DX005 (ip), vehicle: distilled water + alcohol 105 % of control and 120 % of control | dose: 200.0 mg/kg/injection, schedule: Q01DX005 (ip), vehicle: distilled water + alcohol 114 % of control

O=C1NC(=O)C2(CCCC2=Nc2ccc(Br)cc2)C2C=CN(Cc3ccccc3)C=C12 (configuration not stated)
inactive: dose: 25.0 mg/kg/injection, schedule: Q04DX003 (ip), vehicle: saline 107 % of control | dose: 50.0 mg/kg/injection, schedule: Q04DX003 (ip), vehicle: saline 107 % of control | dose: 100.0 mg/kg/injection, schedule: Q04DX003 (ip), vehicle: saline 105 % of control and 110 % of control | dose: 200.0 mg/kg/injection, schedule: Q04DX003 (ip), vehicle: saline 107 % of control

CCOC(=O)C(C(=O)OCC)n1c(=O)c2c(ncn2C)n(C)c1=O
inactive: dose: 100.0 mg/kg/injection, schedule: Q01DX001 (ip), vehicle: Klucel (hydroxypropylcellulose) (HPC) 110 % of control | dose: 200.0 mg/kg/injection, schedule: Q01DX001 (ip), vehicle: Klucel (hydroxypropylcellulose) (HPC) 101 % of control | dose: 400.0 mg/kg/injection, schedule: Q01DX001 (ip), vehicle: Klucel (hydroxypropylcellulose) (HPC) 105 % of control

CC(C)(C)c1cc(C=O)cc(C(C)(C)C)c1O
inactive: [6] 99 % of control | [7] 100 % of control | [8] 96 % of control | [9] 91 % of control

S=c1[nH]c2ccccc2[nH]1
inactive: [1] 98 % of control | dose: 12.5 mg/kg/injection, schedule: Q01DX009 (ip), vehicle: saline 102 % of control | [2] 98 % of control

CCCCN1C(=O)C(=O)N(c2ccccc2)C1=O
inactive: [12] 102 % of control | [13] 102 % of control | [14] 94 % of control

O=c1c2ccccc2nc(-c2ccccc2)n1-c1cc(C(F)(F)F)cc(C(F)(F)F)c1
inactive: dose: 6.25 mg/kg/injection, schedule: Q01DX009 (ip), vehicle: saline with Tween-80 99 % of control | dose: 12.5 mg/kg/injection, schedule: Q01DX009 (ip), vehicle: saline with Tween-80 90 % of control

CN1C2=C(C(=O)CCC2)C(c2ccccc2)C2=C1CCCC2=O
inactive: dose: 50.0 mg/kg/injection, schedule: Q01DX005 (ip), vehicle: saline with Tween-80 103 % of control | dose: 100.0 mg/kg/injection, schedule: Q01DX005 (ip), vehicle: saline with Tween-80 100 % of control | dose: 200.0 mg/kg/injection, schedule: Q01DX005 (ip), vehicle: saline with Tween-80 98 % of control

Cc1ccc(S(=O)(=O)OI(C#CC(C)(C)C)c2ccccc2)cc1
inactive: [3] 102 % of control | [4] 102 % of control | [5] 101 % of control and 117 % of control

N=C1N=Nc2nc(C(C(=O)c3cccc([N+](=O)[O-])c3Cl)c3nc4n(c3O)C(=N)N=N4)c(O)n21 (configuration not stated)
inactive: [12] 106 % of control | [13] 105 % of control | [14] 106 % of control
